Test results from ChEMBL document CHEMBL1201862, “PubChem BioAssay data set” (2004).
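Cells were grown in 96-well plates and exposed to each compound for 48 hours at five concentrations; endpoints were interpolated linearly between bracketing concentrations, or set to the highest concentration if not reached. At the GI50, growth is halved.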 The source made the active and inactive calls. No stated cut-off is given here; in the data, active = GI50 up to about 1.1 µM and inactive = higher.

Tests used:
Assay in all cases: NCI anticancer screen, dose series, 48 h
A549 = tested on: A549
ACHN = tested on: ACHN
CAKI-1 = tested on: CAKI-1
HOP-62 = tested on: HOP-62
HOP-92 = tested on: HOP-92
HT-29 = tested on: HT-29
Hs-578T = tested on: Hs-578T
IGROV-1 = tested on: IGROV-1
MOLT-4 = tested on: MOLT-4
NCI-H460 = tested on: NCI-H460
OVCAR-8 = tested on: OVCAR-8
RPMI-8226 = tested on: RPMI-8226
RXF 393 = tested on: RXF 393
SF-539 = tested on: SF-539
SK-MEL-5 = tested on: SK-MEL-5
SN12C = tested on: SN12C
SR = tested on: SR
SW-620 = tested on: SW-620
U-251 = tested on: U-251

| Compound | GI50 (A549) | GI50 (ACHN) | GI50 (CAKI-1) | GI50 (HOP-62) | GI50 (HOP-92) | GI50 (HT-29) | GI50 (Hs-578T) | GI50 (IGROV-1) | GI50 (MOLT-4) | GI50 (NCI-H460) | GI50 (OVCAR-8) | GI50 (RPMI-8226) | GI50 (RXF 393) | GI50 (SF-539) | GI50 (SK-MEL-5) | GI50 (SN12C) | GI50 (SR) | GI50 (SW-620) | GI50 (U-251) |
| --- | --- | --- | --- | --- | --- | --- | --- | --- | --- | --- | --- | --- | --- | --- | --- | --- | --- | --- | --- |
| O=C1/C(=C/c2cccnc2)C(n2cccc2)c2c(Br)sc(Br)c21 (stereo not drawn) | 15.6 µM (inactive) | 3.28 µM (inactive) | 2.59 µM (inactive) | 2.73 µM (inactive) | 2.01 µM (inactive) | 2.79 µM (inactive) | 2.94 µM (inactive) | 1.58 µM (inactive) | 2.19 µM (inactive) | 4.16 µM (inactive) | 2.1 µM (inactive) | 1.95 µM (inactive) | 2.4 µM (inactive) | 4.26 µM (inactive) | 7.18 µM (inactive) | 3.94 µM (inactive) | 1.81 µM (inactive) | 2.32 µM (inactive) | 1.7 µM (inactive) |
| O=C(O)C1C2C=CC(O2)C1C(=O)NCc1ccccn1 (stereo not drawn) | > 100 µM (inactive) | > 100 µM (inactive) | > 100 µM (inactive) | > 100 µM (inactive) | > 100 µM (inactive) | > 100 µM (inactive) | > 100 µM (inactive) | > 100 µM (inactive) | > 100 µM (inactive) | > 100 µM (inactive) | > 100 µM (inactive) | > 100 µM (inactive) | 44.5 µM (inactive) | > 100 µM (inactive) | > 100 µM (inactive) | > 100 µM (inactive) | > 100 µM (inactive) | > 100 µM (inactive) | > 100 µM (inactive) |
| OC1CCCCCCCCCCC1SCCCCl (stereo not drawn) | > 100 µM (inactive) | > 100 µM (inactive) | > 100 µM (inactive) | > 100 µM (inactive) | > 100 µM (inactive) | > 100 µM (inactive) | > 100 µM (inactive) | > 100 µM (inactive) | > 100 µM (inactive) | > 100 µM (inactive) | > 100 µM (inactive) | > 100 µM (inactive) | > 100 µM (inactive) | > 100 µM (inactive) | > 100 µM (inactive) | > 100 µM (inactive) | > 100 µM (inactive) | > 100 µM (inactive) | > 100 µM (inactive) |
| O=C(Nc1ccccc1)OC1OC(COC(=O)c2ccccc2)C(OC(=O)c2ccccc2)C1OS(=O)(=O)c1ccc([N+](=O)[O-])cc1 (stereo not drawn) | > 100 µM (inactive) | > 100 µM (inactive) | > 100 µM (inactive) | > 100 µM (inactive) | > 100 µM (inactive) | > 100 µM (inactive) | 78.7 µM (inactive) | > 100 µM (inactive) | > 100 µM (inactive) | > 100 µM (inactive) | > 100 µM (inactive) | > 100 µM (inactive) | > 100 µM (inactive) | > 100 µM (inactive) | > 100 µM (inactive) | > 100 µM (inactive) | > 100 µM (inactive) | > 100 µM (inactive) | > 100 µM (inactive) |
| Oc1c(Cl)c(Cl)c(Cl)c(Cl)c1Cl [PENTACHLOROPHENOL] | 23.1 µM (inactive) | 18.9 µM (inactive) | 18.3 µM (inactive) | 25.4 µM (inactive) | 18.6 µM (inactive) | 21.2 µM (inactive) | 35.2 µM (inactive) | 18.8 µM (inactive) | 20.6 µM (inactive) | > 100 µM (inactive) | 20.8 µM (inactive) | 22.1 µM (inactive) | 23.2 µM (inactive) | 21.5 µM (inactive) | 18.3 µM (inactive) | 19.1 µM (inactive) | 26.1 µM (inactive) | 24.5 µM (inactive) | 16.1 µM (inactive) |
| C#CCN(Cc1ccc2nc(OC)c(OC)nc2c1)c1cc(OC)c(OC)c(OC)c1 | 18.4 µM (inactive) | 21 µM (inactive) | 24.2 µM (inactive) | 22.9 µM (inactive) | 7.43 µM (inactive) | 21.8 µM (inactive) | 21.2 µM (inactive) | 19.1 µM (inactive) | 16.9 µM (inactive) | 20 µM (inactive) | 20.7 µM (inactive) | 5.6 µM (inactive) | 14.9 µM (inactive) | 18.5 µM (inactive) | 7.82 µM (inactive) | 18.2 µM (inactive) | 26.5 µM (inactive) | 30.2 µM (inactive) | 23.9 µM (inactive) |
| CC(=O)c1c(C(F)(F)F)[n+]([O-])c2cc(Cl)c(Cl)cc2[n+]1[O-] | 0.575 µM (active) | 0.548 µM (active) | 1.44 µM (inactive) | 0.27 µM (active) | 0.195 µM (active) | 0.792 µM (active) | 0.483 µM (active) | 0.111 µM (active) | 0.0798 µM (active) | 0.242 µM (active) | 0.531 µM (active) | 0.129 µM (active) | 0.895 µM (active) | 1.15 µM (inactive) | 0.796 µM (active) | 1.12 µM (inactive) | 0.0196 µM (active) | 0.393 µM (active) | 1.24 µM (inactive) |
